Source: article PMC8037182, “Solvothermal Synthesis of Multiple Dihydropyrimidinones at a Time as Inhibitors of Eg5” (Molecules, 2021)

Target: T1, Eg5 motor protein (Homo sapiens, UniProt P52732)
T1 construct: Eg5 motor domain (amino acids 1-368) was cloned into pET22b; His-tag (C); made in house; host or cells: Escherichia coli BL21 (DE3)
T1 sequence (P52732 1-368): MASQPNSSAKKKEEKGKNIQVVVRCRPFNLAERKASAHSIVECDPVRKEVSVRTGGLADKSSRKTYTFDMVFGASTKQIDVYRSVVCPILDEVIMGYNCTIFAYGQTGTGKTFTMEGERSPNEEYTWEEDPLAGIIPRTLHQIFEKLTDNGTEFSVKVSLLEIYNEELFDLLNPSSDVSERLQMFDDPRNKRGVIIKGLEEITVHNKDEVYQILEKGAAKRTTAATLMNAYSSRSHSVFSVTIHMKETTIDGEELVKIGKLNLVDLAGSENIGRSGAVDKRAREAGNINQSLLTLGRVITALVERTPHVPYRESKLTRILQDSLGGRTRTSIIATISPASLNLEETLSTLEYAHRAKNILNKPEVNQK
Experiment: microtubule-activated Eg5 motor protein ATPase assay (malachite green, OD630)
Format: biochemical
Details: for IC50: microtubule-stimulated KSP ATPase activity
Protocol: Eg5 motor domain (amino acids 1-368) was cloned into pET22b and expressed in Escherichia coli BL21 (DE3) cells.
Tubulin was purified from pig brain, as described in the literature, and stored at −60 °C in BRB80 (80 mM K-Pipes, pH 6.8, 1 mM EGTA, 1 mM MgCl2). Before the assay of Eg5 ATPase, microtubules were assembled in the presence of paclitaxel and were then separated from unassembled tubulin by centrifugation as described in the literature.
Inhibitory activities of the compounds were measured using a microtubule-activated ATPase assay. The compounds, paclitaxel stabilized microtubules, Eg5 motor protein and BRB80 were added to wells of a 96-well plate in a total reaction volume of 38.5 μL. Reactions were started by the addition of 522.11 μM ATP in a total reaction volume of 98.5 μL, incubated at 37 °C for 30 min and terminated by the addition of 15 μL of perchloric acid. The mixture was centrifuged (10,000 rpm) 10 min at room temperature. The supernatant from this centrifugation step was mixed with HCl 1 M, 33 mM malachite green, 775 mM ammonium molybdate tetrahydrate. After 10 min the absorbance was measured at 630 nm using a microplate reader (BIO-RAD iMark^TM). […] Monastrol was used as the positive control. All conditions were performed in three independent duplicate experiments and averaged data points are shown as mean values ± SD, IC50 values were calculated with SPSS17.0 software. The primary data were shown in Supplementary Materials Tables S1–S3.
A sequence of human Eg5 corresponding to amino acids 1 to 368 was amplified with polymerase chain reaction (PCR) by NOVOPRO BIOSCIENCE INC. It was cloned into pET22b introducing a C-terminal His-tag. The protein was expressed in Escherichia coli BL21 (DE3) cells for 12 h at 25 ℃ in LB containing 1mM Isopropyl-beta-D-thiogalactopyranoside (IPTG), 50 ug/ml Ampicillin. The harvested cells were lysed with Ultrasonic Processor in Binder-buffer (50 mM Tris-HCl, 350 mM NaCl, 10 mM Imidazole, pH 8.0). The clarified lysate was loaded onto a Ni-IDA -Sepharose CL-6B Affi Gel column (Sigma), washed with Washing-buffer(20 mM Tris-HCl, 350 mM NaCl, 20 mM Imidazole, pH 8.0) untill effluent OD280 value reaches baseline. Then it was eluted with Elution-buffer (20 mM Tris-HCl, 350 mM NaCl , 250 mM Imidazole, pH8.0). The buffer was exchanged to 150 mM NaCl, 20mM Tris pH 8.0 by dialysis. The protein concentration was adjusted to 2 mg/ml (measured by a Bradford assay using bovine serum albumin (BSA) as standard). Eg5368H was stored at -20 ℃.
Pig brains were cleaned of blood clots with kitchen paper, weighed, and transferred to a Waring blender. Cold (4 ℃) depolymerization buffer (DB) was added at a ratio of 1 liter/kg of brain tissue. The mixture was homogenized twice for approximately 30 s. The homogenates were then centrifuged in a SLA 1500 Sorvall rotor at 29,000g for 60 min at 4 ℃. The supernatants were pooled and supplemented with an equal volume of warm (37 ℃) high-molarity PIPES buffer (HMPB), ATP (1.5 mM final), and GTP (0.5 mM final). An equal volume (1/3 of the final volume) of pre-warmed to 37 ℃ anhydrous glycerol was added to this solution. This mixture was incubated in a 37 ℃ water bath for 1 h. The polymerized tubulin was then centrifuged in a Ti 45 Beckman rotor at 151,000g (44,000 rpm) for 30 min at 37 ℃. The resulting microtubule pellets were resuspended in 100 ml of cold DB and left for 30 min on ice. The depolymerized tubulinwas subsequently centrifuged in a Ti 45 Beckman rotor at 70,000g (30,000 rpm) for 30 min at 4 ℃. The supernatant from this centrifugation step was mixed with an equal volume of the HMPB supplemented with ATP and GTP, followed by the addition of glycerol (1/3 of the final volume) as described above. The mixture was incubated in a 37 ℃ water bath for 30 min, and the polymerized tubulin was pelleted in a Ti 45 Beckman rotor at 151,000g (44,000 rpm) for 30 min at 37 ℃. […]

SMILES	OD630 Value Mean (compound 24.24 uM)	OD630 Value Mean (compound 30.3 uM)	OD630 Value Mean (compound 60.61 uM)	OD630 Value Mean (compound 90.91 uM)	OD630 Value Mean (compound 121.21 uM)	IC50	OD630 Value Mean (compound 80.81 uM)	OD630 Value Mean (compound 25.38 uM)	OD630 Value Mean (compound 50.76 uM)	OD630 Value Mean (compound 67.68 uM)	OD630 Value Mean (compound 76.14 uM)	OD630 Value Mean (compound 101.52 uM)	OD630 Value Mean (compound 20.2 uM)	OD630 Value Mean (compound 40.41 uM)	OD630 Value Mean (compound 53.87 uM)	OD630 Value Mean (compound 107.74 uM)
CCOC(=O)c1[nH]c(C2NC(=O)NC(C)=C2C(=O)Nc2ccccc2C)c(C(=O)OC)c1C (stereo not shown) [D4]	0.198	0.174	0.158	0.148	0.134	71.3 µM										
CCOC(=O)c1[nH]c(C2NC(=S)NC(C)=C2C(=O)OC)c(C(=O)OCC)c1C (stereo not shown) [D12]		0.243	0.191	0.129	0.123	57.4 µM	0.141									
CCOC(=O)c1c(C2NC(=O)NC(C)=C2C(=O)Nc2ccccc2OC)[nH]c(C(=O)OC)c1C (stereo not shown) [D1]						38.7 µM		0.26	0.248	0.195	0.189	0.159				
CCOC(=O)c1[nH]c(C2NC(=O)NC(C)=C2C(=O)Nc2ccccc2OC)c(C(=O)OC)c1C (stereo not shown) [D3]	0.218	0.182	0.146	0.122	0.115	53.6 µM										
CCOC(=O)c1c(C2NC(=O)NC(C)=C2C(=O)Nc2ccccc2C)[nH]c(C(=O)OC)c1C (stereo not shown) [D2]			0.219			67.3 µM	0.137						0.322	0.279	0.26	
CCOC(=O)c1[nH]c(C2NC(=O)NC(C)=C2C(=O)Nc2ccc(Cl)cc2)c(C(=O)OCC)c1C (stereo not shown) [D7]		0.231	0.197	0.158	0.146	63.2 µM	0.164									
COC(=O)c1[nH]c(C2NC(=S)NC(C)=C2C(=O)c2ccccc2)c(C(=O)OC)c1C (stereo not shown) [D14]		0.25	0.187	0.138	0.14	71.9 µM	0.151									
CCOC(=O)c1c(C2NC(=O)NC(C)=C2C(=O)Nc2ccccc2)[nH]c(C(=O)OC)c1C (stereo not shown) [D10]			0.225	0.191	0.133	64.4 µM	0.197									0.139
CCOc1ccccc1C1NC(=S)NC(C)=C1C(=O)Nc1ccc(Cl)cc1 (stereo not shown) [C9]	0.221	0.182	0.163	0.156	0.14	30.2 µM	0.157									
CCOC(=O)C1=C(C)NC(=S)NC1c1cccc(O)c1 (stereo not shown) [Monastrol, monastrol, reference compound]						51.7 µM		0.214	0.193	0.190	0.188	0.177				
